Laboratory results published in patent publication US20140329797A1, “SUBSTITUTED OXADIAZOLYL PYRIDINONES AND OXADIAZOLYL PYRIDAZINONES AS HIF INHIBITORS” (Bayer Intellectual Property GmbH, priority 2011, published 2014).

system: HCT 116 cells transfected with a luciferase reporter under the control of an HIF-responsive sequence; test: HIF-luciferase assay; type: cell-based; conditions: Homo sapiens; HCT 116 HIF-luciferase reporter cells, hypoxia chamber (1% O2), 24 h; in some cases means of up to four individual determinations
Protocol: B-1. HIF-Luciferase Assay
HCT 116 cells were transfected in a stable manner with a plasmid which contained a luciferase reporter under the control of an HIF-responsive sequence. These cells were sown in microtitre plates [20000 cells/cavity in RPMI 1640 medium with 10% foetal calf serum (FCS) and 100 μg/ml of hygromycin]. Incubation was carried out overnight under standard conditions (5% CO2, 21% O2, 37° C., moistened). The following morning the cells were incubated with various concentrations of the test substances (0-10 μmol/l) in a hypoxia chamber (1% O2). After 24 h, Bright Glo reagent (Promega, Wisconsin, USA) was added in accordance with the manufacturer's instructions, and after 5 min the luminescence was measured. Cells which were incubated under normoxia served as background controls.

| SMILES | IC50 |
| --- | --- |
| O=c1ccc(-c2nc(-c3ccc(OC(F)(F)F)cc3)no2)cn1Cc1cccc(C2(CO)CC2)c1 [Example 43, 1-{3-[1-(Hydroxymethyl)cyclopropyl]benzyl}-5-{3-[4-(trifluoromethoxy)phenyl]-1,2,4-oxadiazol-5-yl}pyridin-2(1H)-one] | 10 nM |
| CC(C)(c1ccc(-c2noc(-c3ccc(=O)n(Cc4cccc(C(=O)N5CCOCC5)c4)c3)n2)cc1)C(F)(F)F [Example 35, 1-[3-(Morpholin-4-ylcarbonyl)benzyl]-5-{3-[4-(1,1,1-trifluoro-2-methylpropan-2-yl)phenyl]-1,2,4-oxadiazol-5-yl}pyridin-2(1H)-one] | 20 nM |
| CC(C)(c1ccc(-c2noc(-c3ccc(=O)n(Cc4cccc(N5CCC(C#N)CC5)c4)c3)n2)cc1)C(F)(F)F [Example 11, 1-(3-{[2-oxo-5-{3-[4-(1,1,1-trifluoro-2-methylpropan-2-yl)phenyl]-1,2,4-oxadiazol-5-yl}pyridin-1(2H)-yl]methyl}phenyl)piperidine-4-carbonitrile] | 2 nM |
| CN1CCN(C(=O)c2cccc(Cn3cc(-c4nc(-c5ccc(OC(F)(F)F)cc5)no4)ccc3=O)c2)CC1 [Example 36, 1-{3-[(4-Methylpiperazin-1-yl)carbonyl]benzyl}-5-{3-[4-(trifluoromethoxy)phenyl]-1,2,4-oxadiazol-5-yl}pyridin-2(1H)-one] | 5 nM |
| N#CC1CCN(c2cc(Cn3cc(-c4nc(-c5ccc(OC(F)(F)F)cc5)no4)ccc3=O)ccn2)CC1 [Example 45, 1-(4-{[2-oxo-5-{3-[4-(trifluoromethoxy)phenyl]-1,2,4-oxadiazol-5-yl}pyridin-1(2H)-yl]methyl}pyridin-2-yl)piperidine-4-carbonitrile] | 5 nM |
| N#CC1CCN(c2cccc(Cn3nc(-c4nc(-c5ccc(OC(F)(F)F)cc5)no4)ccc3=O)c2)CC1 [Example 66, 1-(3-{[6-oxo-3-{3-[4-(trifluoromethoxy)phenyl]-1,2,4-oxadiazol-5-yl}pyridazin-1(6H)-yl]methyl}phenyl)piperidine-4-carbonitrile] | 1.5 nM |
| Nc1ccc(Cn2cc(-c3nc(-c4ccc(OC(F)(F)F)cc4)no3)ccc2=O)cc1 [Example 7, 1-(4-Aminobenzyl)-5-{3-[4-(trifluoromethoxy)phenyl]-1,2,4-oxadiazol-5-yl}pyridin-2(1H)-one] | 20 nM |
| CC(=O)OC1(c2cccc(Cn3cc(-c4nc(-c5ccc(OC(F)(F)F)cc5)no4)ccc3=O)c2)CC1 [Example 40, 1-(3-{[2-Oxo-5-{3-[4-(trifluoromethoxy)phenyl]-1,2,4-oxadiazol-5-yl}pyridin-1(2H)-yl]methyl}phenyl)cyclopropyl acetate] | 2.5 nM |
| CN1CCN(C(=O)c2cccc(Cn3nc(-c4nc(-c5ccc(C(C)(C)C(F)(F)F)cc5)no4)ccc3=O)c2)CC1 [Example 86, 2-{3-[(4-Methylpiperazin-1-yl)carbonyl]benzyl}-6-{3-[4-(1,1,1-trifluoro-2-methylpropan-2-yl)phenyl]-1,2,4-oxadiazol-5-yl}pyridazin-3(2H)-one] | 40 nM |
| CC(C)(c1ccc(-c2noc(-c3ccc(=O)n(Cc4cccc(C(=O)N5CC(O)C5)c4)c3)n2)cc1)C(F)(F)F [Example 27, 1-{3-[(3-Hydroxyazetidin-1-yl)carbonyl]benzyl}-5-{3-[4-(1,1,1-trifluoro-2-methylpropan-2-yl)phenyl]-1,2,4-oxadiazol-5-yl}pyridin-2(1H)-one] | 1 nM |
| CNc1ccc(Cn2nc(-c3nc(-c4ccc(C(C)(C)C(F)(F)F)cc4)no3)ccc2=O)cn1 [Example 101, 2-{[6-(Methylamino)pyridin-3-yl]methyl}-6-{3-[4-(1,1,1-trifluoro-2-methylpropan-2-yl)phenyl]-1,2,4-oxadiazol-5-yl}pyridazin-3(2H)-one] | 15 nM |
| Cc1ccc(Cn2cc(-c3nc(-c4ccc(OC(F)(F)F)cc4)no3)ccc2=O)cc1 [Example 1, 1-(4-Methylbenzyl)-5-{3-[4-(trifluoromethoxy)phenyl]-1,2,4-oxadiazol-5-yl}pyridin-2(1H)-one] | 45 nM |
| CN1CCN(C(=O)c2cccc(Cn3cc(-c4nc(-c5ccc(C(C)(C)C(F)(F)F)cc5)no4)ccc3=O)c2)CC1 [Example 37, 1-{3-[(4-Methylpiperazin-1-yl)carbonyl]benzyl}-5-{3-[4-(1,1,1-trifluoro-2-methylpropan-2-yl)phenyl]-1,2,4-oxadiazol-5-yl}pyridin-2(1H)-one] | 10 nM |

Further compounds by falling IC50, results first:

| IC50 | SMILES |
| --- | --- |
| 60 nM | CNC(=O)c1cccc(Cn2nc(-c3nc(-c4ccc(C(C)(C)C(F)(F)F)cc4)no3)ccc2=O)c1 [Example 70, N-Methyl-3-{[6-oxo-3-{3-[4-(1,1,1-trifluoro-2-methylpropan-2-yl)phenyl]-1,2,4-oxadiazol-5-yl}pyridazin-1(6H)-yl]methyl}benzamide] |
| 20 nM | CC(=O)N1CCN(c2cc(Cn3cc(-c4nc(-c5ccc(SC(F)(F)F)cc5)no4)ccc3=O)ccn2)CC1 [Example 55, 1-{[2-(4-Acetylpiperazin-1-yl)pyridin-4-yl]methyl}-5-(3-{4-[(trifluoromethyl)sulphanyl]phenyl}-1,2,4-oxadiazol-5-yl)pyridin-2(1H)-one] |
| 20 nM | O=C(c1cccc(Cn2nc(-c3nc(-c4ccc(OC(F)(F)F)cc4)no3)ccc2=O)c1)N1CC(O)C1 [Example 76, 2-{3-[(3-Hydroxyazetidin-1-yl)carbonyl]benzyl}-6-{3-[4-(trifluoromethoxy)phenyl]-1,2,4-oxadiazol-5-yl}pyridazin-3(2H)-one] |
| 8 nM | CC(C)(O)Cc1cccc(Cn2cc(-c3nc(-c4ccc(C(C)(C)C(F)(F)F)cc4)no3)ccc2=O)c1 [Example 42, 1-[3-(2-Hydroxy-2-methylpropyl)benzyl]-5-{3-[4-(1,1,1-trifluoro-2-methylpropan-2-yl)phenyl]-1,2,4-oxadiazol-5-yl}pyridin-2(1H)-one] |
| 5 nM | O=C(c1cccc(Cn2nc(-c3nc(-c4ccc(OC(F)(F)F)cc4)no3)ccc2=O)c1)N1CCCO1 [Example 80, 2-[3-(1,2-Oxazolidin-2-ylcarbonyl)benzyl]-6-{3-[4-(trifluoromethoxy)phenyl]-1,2,4-oxadiazol-5-yl}pyridazin-3(2H)-one] |
| 2 nM | O=C(c1cccc(Cn2cc(-c3nc(-c4ccc(OC(F)(F)F)cc4)no3)ccc2=O)c1)N1CCCO1 [Example 30, 1-[3-(1,2-Oxazolidin-2-ylcarbonyl)benzyl]-5-{3-[4-(trifluoromethoxy)phenyl]-1,2,4-oxadiazol-5-yl}pyridin-2(1H)-one] |
| 1.5 nM | O=c1ccc(-c2nc(-c3ccc(OC(F)(F)F)cc3)no2)nn1Cc1ccnc(N2CCN(C3CC3)CC2)c1 [Example 96, 2-{[2-(4-Cyclopropylpiperazin-1-yl)pyridin-4-yl]methyl}-6-{3-[4-(trifluoromethoxy)phenyl]-1,2,4-oxadiazol-5-yl}pyridazin-3(2H)-one] |
| 1.5 nM | N#CC1CCN(c2cccc(Cn3cc(-c4nc(-c5ccc(OC(F)(F)F)cc5)no4)ccc3=O)c2)CC1 [Example 9, 1-(3-{[2-oxo-5-{3-[4-(trifluoromethoxy)phenyl]-1,2,4-oxadiazol-5-yl}pyridin-1(2H)-yl]methyl}phenyl)piperidine-4-carbonitrile] |
| 1 nM | N#CC1CCN(c2cccc(Cn3cc(-c4nc(-c5ccc(SC(F)(F)F)cc5)no4)ccc3=O)c2)CC1 [Example 10, 1-(3-{[2-oxo-5-(3-{4-[(trifluoromethyl)sulphanyl]phenyl}-1,2,4-oxadiazol-5-yl)pyridin-1(2H)-yl]methyl}phenyl)piperidine-4-carbonitrile] |
